Laboratory results as given in patent US20260250320A1, “LIPIDATED PEPTIDE INHIBITORS OF INTERLEUKIN-23 RECEPTOR” (Janssen Pharmaceutica NV, priority 2023, published 2026).
*1 amine or outer side, *2 acyl side, *3 side chain or, on linkers, in order; H or OH if unused. Where a SMILES comes first, the peptide text is derived from it. Bridges are numbered along the chain shown (N, C = ends). Side-chain parts run from the residue outwards. [ ]: non-standard residue; d: D form. The star is where a group is joined. X13 = O=C(O)CCCCCCCCCCCCCCCCC(=O)NCCOCCOCCOCCOCCOCCOCCOCCOCCOCCOCCOCCOCC(=O)*; Me3N+CH2CH2(OCH2CH2)4CO = C[N+](C)(C)CCOCCOCCOCCOCCC(=O)*; Me3N+(CH2)2O(CH2)2O(CH2)2CO = C[N+](C)(C)CCOCCOCCC(=O)*; PEG12 = NCCOCCOCCOCCOCCOCCOCCOCCOCCOCCOCCOCCOCCC(=O)O; Trp(7-Me,2,3-dihydro) = Cc1cccc2c1NCC2C[C@H](N)C(=O)O; CH2CH2OCH2CH2OCH2CH2NMe3+ = C[N+](C)(C)CCOCCOCC*; Trp(7-Me) = Cc1cccc2c(C[C@H](N)C(=O)O)c[nH]c12; C20 diacid = O=C(O)CCCCCCCCCCCCCCCCCCC(=O)*; C18 diacid = O=C(O)CCCCCCCCCCCCCCCCC(=O)*; X20 = CC(=O)CCCCC[C@H](N[*:1])C(=O)[*:2]; X6 = CN(CC[C@H](N[*:1])C(=O)[*:2])[*:3]; CH2CH2OCH2CH2NMe3+ = C[N+](C)(C)CCOCC*; γGlu = O=C(O)[C@H](CCC(=O)[*:2])N[*:1]; 2Nal = N[C@@H](Cc1ccc2ccccc2c1)C(=O)O; AEF = NCCOc1ccc(C[C@H](N)C(=O)O)cc1; 3Pal = N[C@@H](Cc1cccnc1)C(=O)O; Lys(Me) = CNCCCC[C@H](N)C(=O)O; NMeK = CN[C@@H](CCCCN)C(=O)O; Pen = CC(C)(S)[C@H](N)C(=O)O; Thp = NC1(C(=O)O)CCOCC1; X1 = C[N+](C)(C)CCCCC*; AEEA = NCCOCCOCC(=O)O; Sar = CNCC(=O)O

Experiments:
[1] = system: IL-23-stimulated phosphorylated STAT3 in peripheral blood mononuclear cells (PBMCs); assay: PBMC pSTAT3 Assay; format: cell-based; details: PBMCs from healthy donors; 30 min preincubation with peptide; IL-23 5 ng/mL for 30 min; phospho-STAT3 by MSD
Method: Cryopreserved peripheral blood mononuclear cells (PBMCs) from healthy donors were thawed and washed twice in ImmunoCult-XF T cell expansion medium (XF-TCEM) supplemented with CTL anti-aggregate wash. The cells were counted, resuspended at 2-6×10^5 cells per mL XF-TCEM supplemented with penicillin/streptomycin and 100 ng/mL […] (BioLegend, 579404), and cultured in tissue culture flasks coated with anti-CD3 (eBioscience, 16-0037-85 or BD Pharmingen, 555329) at 37° C. in 5% CO2. On day 4 of culture, PBMCs were collected, washed twice in RPMI-1640 supplemented with 0.1% BSA (RPMI-BSA), and incubated in RPMI-BSA in upright tissue culture flasks for ~4 hours at 37° C. in 5% CO2. Following this 'starvation,' a total of 6×10^4 cells in 30 μL RPMI-BSA was transferred into each well of a 384-well plate pre-spotted with peptide or DMSO. The cells were incubated for 30 minutes prior to the addition of […] at a final concentration of 5 ng/mL. The cells were stimulated with cytokine for 30 minutes at 37° C. in 5% CO2, transferred onto ice for 10 minutes, and lysed. Cell lysates were stored at -80° C. until phosphorylated STAT3 was measured using the phospho-STAT panel kit (Meso Scale Discovery, […]). Results are provided below. • A: IC50<0.5 nM; • B: 0.5 nM≤IC50<5 nM; • C: 5 nM≤IC50; • ND: Not determined

IL-23R = biological target: T1, IL-23R (Homo sapiens, UniProt Q5VWK5); assay: IL23R Reporter Assay; format: cell-based; details: HEK293 cells containing IL-23R, IL-12Rβ1 and STAT-inducible firefly luciferase reporter; 10 ng/mL IL-23 (EC90); 5 h
T1 construct: HEK293 cells containing IL-23R, IL-12Rβ1 and a firefly luciferase reporter gene driven by a STAT-inducible promoter (Promega); host or cells: HEK293
T1 sequence (Q5VWK5 24-629): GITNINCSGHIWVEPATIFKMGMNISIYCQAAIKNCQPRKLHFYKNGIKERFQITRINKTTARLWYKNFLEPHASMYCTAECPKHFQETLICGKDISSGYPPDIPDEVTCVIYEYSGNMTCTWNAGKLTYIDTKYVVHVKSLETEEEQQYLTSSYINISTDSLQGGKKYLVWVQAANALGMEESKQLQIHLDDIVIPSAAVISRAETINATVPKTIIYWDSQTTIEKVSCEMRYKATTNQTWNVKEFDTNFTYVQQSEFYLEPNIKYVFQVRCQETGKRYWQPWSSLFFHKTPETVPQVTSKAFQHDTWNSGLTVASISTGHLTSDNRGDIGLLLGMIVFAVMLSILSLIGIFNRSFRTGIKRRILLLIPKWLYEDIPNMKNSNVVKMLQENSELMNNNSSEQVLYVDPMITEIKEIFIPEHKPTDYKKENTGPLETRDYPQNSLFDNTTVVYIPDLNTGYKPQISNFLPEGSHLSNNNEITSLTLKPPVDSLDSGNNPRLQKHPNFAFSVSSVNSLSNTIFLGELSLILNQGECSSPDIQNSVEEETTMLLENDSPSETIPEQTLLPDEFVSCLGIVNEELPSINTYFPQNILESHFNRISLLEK
Outline: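 IC50 values were fitted with a 4-parameter Hill equation to luciferase signal, scaled between IL-23-only wells (0% inhibition) and 30 μM reference inhibitor (100%). The readout was a STAT-inducible reporter in IL-23R/IL-12Rβ1 HEK293 cells, stimulated with added 10 ng/mL IL-23 (EC90) for 5 h at 37° C and developed with BioGlo.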

SMILES | IC50 [1] | IC50 (IL-23R)
CC(=O)N(C)CCCC[C@H](NC(=O)CNC(=O)[C@H](Cc1ccc2ccccc2c1)NC(=O)[C@H](Cc1ccc(OCCCCC[N+](C)(C)C)cc1)NC(=O)[C@H]1NC(=O)[C@H](CCCCNC(=O)COCCOCCNC(=O)COCCOCCNC(=O)CC[C@H](NC(=O)CCCCCCCCCCCCCCCCC(=O)O)C(=O)O)NC(=O)[C@H](Cc2c[nH]c3c(C)cccc23)NC(=O)[C@H]([C@@H](C)O)NC(=O)[C@H](CC(=O)N(C)C)NC(=O)[C@@H](NC(=O)CCOCCOCC[N+](C)(C)C)C(C)(C)SSC1(C)C)C(=O)N[C@@H](CC(N)=O)C(=O)N[C@@H](Cc1cccnc1)C(=O)N(C)CC(=O)N(C)C [compound 157, cPEG3aCO-Pen(3)-N(N(Me)2)-T-7MeW-K(PEG2PEG2gEC18OH)-Pen(3)-APEG3F-2Nal-THP-K(NMeAc)-N-3Pya-Sar-CON(Me)2] ({Me3N+(CH2)2O(CH2)2O(CH2)2CO}-[Pen]D(NMe2)T[Trp(7-Me)]K([AEEA-AEEA-γGlu-C18 diacid])[Pen]Y(X1)[2Nal]G[Lys(Me)](Ac)N[3Pal][Sar]-NMe2; disulfide 1-6) | 0.5 to 5 nM | 50 to 500 nM
CC(=O)NCCCC[C@@H]1NC(=O)[C@H](Cc2c[nH]c3c(C)cccc23)NC(=O)[C@H]([C@@H](C)O)NC(=O)[C@H](CC(N)=O)NC(=O)[C@@H](NC(C)=O)C(C)(C)SSC(C)(C)[C@@H](C(=O)N[C@@H](Cc2ccc(OCCN)cc2)C(=O)N[C@@H](Cc2ccc3ccccc3c2)C(=O)NC2(C(=O)N[C@@H](CCC(=O)O)C(=O)N[C@@H](CC(N)=O)C(=O)N[C@@H](Cc3cccnc3)C(=O)N(C)CC(=O)N[C@@H](CCCCNC(=O)COCCOCCNC(=O)COCCOCCNC(=O)CC[C@H](NC(=O)CCCCCCCCCCCCCCCCC(=O)O)C(=O)O)C(N)=O)CCOCC2)NC1=O [compound 27, MeCO-Pen(3)-N-T-7MeW-K(Ac)-Pen(3)-AEF-2Nal-THP-E-N-3Pya-Sar-K(PEG2PEG2gEC18OH)-CONH2] | < 0.5 nM | < 50 nM
CC(=O)CCCCC[C@@H]1NC(=O)[C@H](Cc2c[nH]c3c(C)cccc23)NC(=O)[C@H]([C@@H](C)O)NC(=O)[C@H](CC(N)=O)NC(=O)[C@@H](NC(C)=O)C(C)(C)SSC(C)(C)[C@@H](C(=O)N[C@@H](Cc2ccc(OCCN)cc2)C(=O)N[C@@H](CCC(=O)O)C(=O)N[C@@H](CC(N)=O)C(=O)N[C@@H](Cc2cccnc2)C(=O)N(C)CC(=O)N[C@@H](CCCCNC(=O)CCOCCOCCOCCOCCOCCOCCOCCOCCOCCOCCOCCOCCNC(=O)CC[C@H](NC(=O)CCCCCCCCCCCCCCCCC(=O)O)C(=O)O)C(N)=O)NC1=O [compound 161, MeCO-Pen(3)-N-T-7MeW-K(Ac)-Pen(3)-AEF-2Nal-THP-E-N-3Pya-Sar-K(PEG12gEC18OH)-CONH2] (Ac-[Pen]NT[Trp(7-Me)][X20][Pen][AEF]EN[3Pal][Sar]K([PEG12-γGlu-C18 diacid])-NH2; disulfide 1-6) | < 0.5 nM | < 50 nM
CC(=O)NCCCC[C@@H]1NC(=O)[C@H](Cc2c[nH]c3c(C)cccc23)NC(=O)[C@H]([C@@H](C)O)NC(=O)[C@H](CC(N)=O)NC(=O)[C@@H](NC(C)=O)C(C)(C)SSC(C)(C)[C@@H](C(=O)N[C@@H](Cc2ccc(OCCN)cc2)C(=O)N[C@@H](Cc2ccc3ccccc3c2)C(=O)NC2(C(=O)N[C@@H](CCC(=O)O)C(=O)N[C@@H](CC(N)=O)C(=O)N[C@@H](Cc3cccnc3)C(=O)N(C)CC(=O)OCCOCCOCCNC(=O)COCCOCCNC(=O)CC[C@H](NC(=O)CCCCCCCCCCCCCCCCC(=O)O)C(=O)O)CCOCC2)NC1=O [compound 147, MeCO-Pen(3)-N-T-7MeW-K(Ac)-Pen(3)-AEF-2Nal-THP-E-N-3Pya-Sar-CO(PEG2PEG2gEC18OH)] | 0.5 to 5 nM | ≥ 500 nM
CC(=O)N(C)CCCC[C@@H]1NC(=O)[C@H](Cc2c[nH]c3c(C)cccc23)NC(=O)[C@H]([C@@H](C)O)NC(=O)[C@H](CC(=O)N(C)C)NC(=O)[C@@H](N)C(C)(C)SSC(C)(C)[C@@H](C(=O)N[C@@H](Cc2ccc(OCCOCCOCC[N+](C)(C)C)cc2)C(=O)N[C@@H](Cc2ccc3ccccc3c2)C(=O)NC2(C(=O)N[C@@H](CCCCN(C)C(C)=O)C(=O)N[C@@H](CC(N)=O)C(=O)N[C@@H](Cc3cccnc3)C(=O)N(C)CC(=O)N[C@@H](CCCCNC(=O)COCCOCCNC(=O)COCCOCCNC(=O)CC[C@H](NC(=O)CCCCCCCCCCCCCCCCC(=O)O)C(=O)O)C(=O)N(C)C)CCOCC2)NC1=O [compound 148, cPEG3aCO-Pen(3)-N(N(Me)2)-T-7MeW-K(NMeAc)-Pen(3)-APEC3F-2Nal-THP-K(NMeAc)-N-3Pya-Sar-K(PEG2PEG2gEC18OH)-CON(Me)2] (H-[Pen]D(NMe2)T[Trp(7-Me)][Lys(Me)](Ac)[Pen]Y(CH2CH2OCH2CH2OCH2CH2NMe3+)[2Nal][Thp][Lys(Me)](Ac)N[3Pal][Sar]K([AEEA-AEEA-γGlu-C18 diacid])-NMe2; disulfide 1-6) | < 0.5 nM | 50 to 500 nM
CC(=O)N(C)CCCC[C@@H]1NC(=O)[C@H](Cc2c[nH]c3c(C)cccc23)NC(=O)[C@H]([C@@H](C)O)NC(=O)[C@H](CC(=O)N(C)C)NC(=O)[C@@H](NC(=O)[C@@H](CCCCNC(=O)COCCOCCNC(=O)COCCOCCNC(=O)CC[C@H](NC(=O)CCCCCCCCCCCCCCCCCCC(=O)O)C(=O)O)NC(=O)CCOCCOCC[N+](C)(C)C)C(C)(C)SSC(C)(C)[C@@H](C(=O)N[C@@H](Cc2ccc(OCCOCC[N+](C)(C)C)cc2)C(=O)N[C@@H](Cc2ccc3ccccc3c2)C(=O)NC2(C(=O)N[C@@H](CCCCN(C)C(C)=O)C(=O)N[C@@H](CC(N)=O)C(=O)N[C@@H](Cc3cccnc3)C(=O)N(C)CC(=O)N(C)C)CCOCC2)NC1=O [compound 129, cPEG3aCO-K(PEG2PEG2gEC20OH)-Pen(3)-N(N(Me)2)-T-7MeW-K(NMeAc)-Pen(3)-TMAPF-2Nal-THP-K(NMeAc)-N-3Pya-Sar-CON(Me)2] ({Me3N+(CH2)2O(CH2)2O(CH2)2CO}-[dK]([AEEA-AEEA-γGlu-C20 diacid])[Pen]D(NMe2)T[Trp(7-Me)][Lys(Me)](Ac)[Pen]Y(CH2CH2OCH2CH2NMe3+)[2Nal][Thp][Lys(Me)](Ac)N[3Pal][Sar]-NMe2; disulfide 2-7) | < 0.5 nM | < 50 nM
Cc1cccc2c1NCC2C[C@@H]1NC(=O)[C@H]([C@@H](C)O)NC(=O)[C@H](CC(=O)N(C)C)NC(=O)[C@@H](NC(=O)CCOCCOCCOCCOCC[N+](C)(C)C)C(C)(C)SSC(C)(C)[C@@H](C(=O)N[C@@H](Cc2ccc(OCCN)cc2)C(=O)N[C@@H](Cc2ccc3ccccc3c2)C(=O)NC2(C(=O)N[C@@H](CCC(=O)O)C(=O)N[C@@H](CC(N)=O)C(=O)N[C@@H](Cc3cccnc3)C(=O)N(C)[C@@H](CCCCNC(=O)COCCOCCOCCOCCOCCOCCOCCOCCOCCOCCOCCOCCNC(=O)CCCCCCCCCCCCCCCCC(=O)O)C(N)=O)CCOCC2)NC(=O)[C@H](CCN(C)C(=O)CCOCCOCCOCCOCC[N+](C)(C)C)NC1=O (some centres unmarked) [compound 136, cPEG5aCO-Pen(3)-N(N(Me)2)-T-7MeW-Dab(NMecPEG5a)-Pen(3)-AEF-2Nal-THP-E-N-3Pya-NMeK(PEG12C18OH)-CONH2] ({Me3N+CH2CH2(OCH2CH2)4CO}-[Pen]D(NMe2)T[Trp(7-Me,2,3-dihydro)][X6](Me3N+CH2CH2(OCH2CH2)4CO)[Pen][AEF][2Nal][Thp]EN[3Pal][NMeK](X13)-NH2; disulfide 1-6) | 0.5 to 5 nM | 50 to 500 nM
